Results from publication PMC6273433, “Design, Synthesis and Cytotoxicity of Novel Dihydroartemisinin-Coumarin Hybrids via Click Chemistry” (Molecules, 2016).
Like-named read-outs stand apart in the source and are kept apart here.

Columns and labels:
[1] = tested on: MRC-5 (human fetal lung fibroblast cells, normal lung cell); experiment: MTT cytotoxicity assay, MRC-5 normal cells; assay type: cell-based; conditions: MRC5, MRC-5, normoxia, 96 h MTT
Experimental: (§1) We focused our attention on the cytotoxicity of the four series of newly-synthesized compounds (10a–e, 11a–e, 12a–e, and 13a–e) under normoxic or anoxic conditions.
(§2) The data was calculated by the Logit method and presented as IC50 values in Table 1.
(§3) All of the newly-synthesized compounds were screened for in vitro cytotoxicity by MTT assay. The exponentially-growing MRC-5, HCT-116, MDA-MB-231, and HT-29 cells were allowed to grow until 80% confluency, the culture medium was discarded, digested with trypsin, separated centrifugally, then fresh culture medium was added and blown gently into single-cell suspension. Then, the cell suspension was seeded into each well of 96-well microculture plates at a concentration of 1.5 × 10^3–3 × 10^3 cells/well.
(§4) The cells were incubated with 50 μL of 2 mg/mL MTT solution for 4 h in a humidified incubator. The supernatant was discarded, and the media were then replaced with 200 μL of dimethyl sulfoxide to dissolve the purple colored formazan crystals formed in the wells, and their absorbances were measured at 492 nm with a microplate reader (Synergy-HT, BioTek Instruments, Winooski, VT, USA); 200 μL DMSO was set as the blank control.

[2] = tested on: HCT-116 (human colorectal cancer cell line); experiment: MTT cytotoxicity assay, HCT-116 under anoxia or normoxia; assay type: cell-based; conditions: for HCT-116 Value = IC50(normoxia)/IC50(anoxia): HCT-116, activity promotion under anoxia, >100 set as 100; for IC50: Homo sapiens
Experimental: as §1, §2, §3, §4
(§5) The anoxia condition was achieved by placing cells in a sealed hypoxia incubator chamber (Catalog Number 27310, Stemcell Technologies, Inc., Vancouver, BC, Canada) filled with 5% CO2 and 95% N2.

[3] = tested on: MDA-MB-231 (human breast carcinoma cell line, CA IX negative); experiment: MTT cytotoxicity assay, MDA-MB-231 under anoxia or normoxia; assay type: cell-based; conditions: for IC50: Homo sapiens; for MDA-MB-231 Value = IC50(normoxia)/IC50(anoxia): MDA-MB-231, activity promotion under anoxia, >100 set as 100
Experimental: as §1, §2, §3, §4, §5

[4] = tested on: HT-29 (human colon carcinoma cell line, overexpresses high amounts of CA IX); experiment: MTT cytotoxicity assay, HT-29 under anoxia or normoxia; assay type: cell-based; conditions: for HT-29 Value = IC50(normoxia)/IC50(anoxia): HT-29, activity promotion under anoxia; for IC50: Homo sapiens
Experimental: as §1, §2, §3, §4, §5

[5] = HCT-116, anoxia 24 h then normoxia 72 h, MTT, read-out: IC50 HCT-116 Anoxia
[6] = HCT-116, normoxia, 96 h MTT, read-out: IC50 HCT-116 Normoxia
[7] = MDA-MB-231, anoxia 24 h then normoxia 72 h, MTT, read-out: IC50 MDA-MB-231 Anoxia
[8] = MDA-MB-231, normoxia, 96 h MTT, read-out: IC50 MDA-MB-231 Normoxia
[9] = HT-29, anoxia 24 h then normoxia 72 h, MTT, read-out: IC50 HT-29 Anoxia
[10] = HT-29, normoxia, 96 h MTT, read-out: IC50 HT-29 Normoxia

| SMILES | IC50 [1] [µM] | HCT-116 Value = IC50(normoxia)/IC50(anoxia) [2] | IC50 [2, 5] [µM] | IC50 [2, 6] [µM] | IC50 [3, 7] [µM] | IC50 [3, 8] [µM] | MDA-MB-231 Value = IC50(normoxia)/IC50(anoxia) [3] | HT-29 Value = IC50(normoxia)/IC50(anoxia) [4] | IC50 [4, 9] [µM] | IC50 [4, 10] [µM] | melting point [°C] |
| --- | --- | --- | --- | --- | --- | --- | --- | --- | --- | --- | --- |
| CCOC(=O)c1cc2ccc(OCc3cn(CCCO[C@H]4O[C@@H]5O[C@@]6(C)CC[C@H]7[C@H](C)CC[C@@H]([C@H]4C)[C@@]57OO6)nn3)cc2oc1=O [13e, Ethyl 2-oxo-7-(1-(3-(10β-dihydroartemisininoxy)propyl)-1H-1,2,3-triazol-4-yl)methoxy-2H-chromene-3-carboxylate] | 27.2 | 3.65 | 17.6 | 64.3 | 25.9 | 53.7 | 2.07 | 2.22 | 7.09 | 15.7 | 79 to 81 |
| CCOC(=O)c1cc2ccc(OCc3cn(CCO[C@H]4O[C@@H]5O[C@@]6(C)CC[C@H]7[C@H](C)CC[C@@H]([C@H]4C)[C@@]57OO6)nn3)cc2oc1=O [12e, Ethyl 2-oxo-7-(1-(2-(10β-dihydroartemisininoxy)ethyl)-1H-1,2,3-triazol-4-yl)methoxy-2H-chromene-3-carboxylate] | 69.5 | 1.62 | 35.7 | 57.9 | 65.1 | > 100 | 1.54 | 1.88 | 20.8 | 39 | 71 to 73 |
| Cc1cc(=O)oc2cc(OCCn3cc(CO[C@H]4O[C@@H]5O[C@@]6(C)CC[C@H]7[C@H](C)CC[C@@H]([C@H]4C)[C@@]57OO6)nn3)ccc12 [10a, 7-(2-(4-(10β-Dihydroartemisininoxy)methyl)-1H-1,2,3-triazol-1-yl)ethoxy-4-methyl-2H-chromen-2-one] | 28 | 0.86 | 11.9 | 10.3 | 36.7 | 52 | 1.42 | 8.35 | 1.47 | 12.3 |  |
| C[C@H]1[C@@H](OCc2cn(CCOc3ccc4c(C(F)(F)F)cc(=O)oc4c3)nn2)O[C@@H]2O[C@@]3(C)CC[C@H]4[C@H](C)CC[C@@H]1[C@@]24OO3 [10b, 7-(2-(4-(10β-Dihydroartemisininoxy)methyl)-1H-1,2,3-triazol-1-yl)ethoxy-4-trifluoromethyl-2H-chromen-2-one] | 33.6 | 0.78 | 8.31 | 6.46 | 24.7 | 28 | 1.13 | 4.99 | 2.18 | 10.9 |  |
| C[C@H]1[C@@H](OCc2cn(CCCOc3ccc4c(C(F)(F)F)cc(=O)oc4c3)nn2)O[C@@H]2O[C@@]3(C)CC[C@H]4[C@H](C)CC[C@@H]1[C@@]24OO3 [11b, 7-(3-(4-(10β-Dihydroartemisininoxy)methyl)-1H-1,2,3-triazol-1-yl)propoxy-4-trifluoromethyl-2H-chromen-2-one] | 43.8 | 1.38 | 9.33 | 12.9 | 36.9 | 72.6 | 1.97 | 1.63 | 5.06 | 8.23 |  |
| CCOC(=O)c1cc2ccc(OCCn3cc(CO[C@H]4O[C@@H]5O[C@@]6(C)CC[C@H]7[C@H](C)CC[C@@H]([C@H]4C)[C@@]57OO6)nn3)cc2oc1=O [10e, Ethyl 2-oxo-7-(2-(4-(10β-dihydroartemisininoxy)methyl)-1H-1,2,3-triazol-1-yl)ethoxy-2H-chromene-3-carboxylate] | 52.5 | 1.79 | 28.8 | 51.5 | 91.2 | > 100 |  | 3.66 | 8.69 | 31.8 |  |
| Cc1c(C)c2ccc(OCCn3cc(CO[C@H]4O[C@@H]5O[C@@]6(C)CC[C@H]7[C@H](C)CC[C@@H]([C@H]4C)[C@@]57OO6)nn3)cc2oc1=O [10c, 7-(2-(4-(10β-Dihydroartemisininoxy)methyl)-1H-1,2,3-triazol-1-yl)ethoxy-3,4-dimethyl-2H-chromen-2-one] | 22.3 | 0.95 | 6.89 | 6.51 | 33.2 | 32.3 | 0.97 | 11.50 | 1.82 | 21 |  |
| Cc1c(Cl)c(=O)oc2cc(OCCn3cc(CO[C@H]4O[C@@H]5O[C@@]6(C)CC[C@H]7[C@H](C)CC[C@@H]([C@H]4C)[C@@]57OO6)nn3)ccc12 [10d, 3-Chloro-7-(2-(4-(10β-dihydroartemisininoxy)methyl)-1H-1,2,3-triazol-1-yl)ethoxy-4-methyl-2H-chromen-2-one] | 50.7 | 0.79 | 5.3 | 4.18 | 29.2 | 61.4 | 2.10 |  | 0.05 | 17.7 |  |
| CCOC(=O)c1cc2ccc(OCCCn3cc(CO[C@H]4O[C@@H]5O[C@@]6(C)CC[C@H]7[C@H](C)CC[C@@H]([C@H]4C)[C@@]57OO6)nn3)cc2oc1=O [11e, Ethyl 2-oxo-7-(3-(4-(10β-dihydroartemisininoxy)methyl)-1H-1,2,3-triazol-1-yl)propoxy-2H-chromene-3-carboxylate] | 38.7 | 1.57 | 28.1 | 44.1 | 50.7 | 121 | 2.38 | 4.25 | 12 | 51.1 |  |
| Cc1c(C)c2ccc(OCCCn3cc(CO[C@H]4O[C@@H]5O[C@@]6(C)CC[C@H]7[C@H](C)CC[C@@H]([C@H]4C)[C@@]57OO6)nn3)cc2oc1=O [11c, 7-(3-(4-(10β-Dihydroartemisininoxy)methyl)-1H-1,2,3-triazol-1-yl)propoxy-3,4-dimethyl-2H-chromen-2-one] | 60.9 | 1.27 | 16.6 | 21 | 39.8 | 56 | 1.41 | 0.83 | 23.2 | 19.3 |  |
| COc1cccc2c1C(=O)c1c(O)c3c(c(O)c1C2=O)C[C@@](O)(C(=O)CO)C[C@@H]3O[C@H]1C[C@H](N)[C@H](O)[C@H](C)O1 [DOX, doxorubicin, reference compound] | 0.34 | 0.39 | 0.15 | 0.06 | 0.37 | 0.27 | 0.73 | 1.74 | 0.05 | 0.09 |  |
| Cc1c(Cl)c(=O)oc2cc(OCCCn3cc(CO[C@H]4O[C@@H]5O[C@@]6(C)CC[C@H]7[C@H](C)CC[C@@H]([C@H]4C)[C@@]57OO6)nn3)ccc12 [11d, 3-Chloro-7-(3-(4-(10β-dihydroartemisininoxy)methyl)-1H-1,2,3-triazol-1-yl)propoxy-4-methyl-2H-chromen-2-one] | > 100 | 1.28 | 6 | 7.68 | 22.5 | 51.6 | 2.29 | 2.90 | 1.34 | 3.9 |  |
| Cc1cc(=O)oc2cc(OCCCn3cc(CO[C@H]4O[C@@H]5O[C@@]6(C)CC[C@H]7[C@H](C)CC[C@@H]([C@H]4C)[C@@]57OO6)nn3)ccc12 [11a, 7-(3-(4-(10β-Dihydroartemisininoxy)methyl)-1H-1,2,3-triazol-1-yl)propoxy-4-methyl-2H-chromen-2-one] | 15.5 | 1.36 | 6.02 | 8.21 | 17.8 | 51.2 | 2.87 | 7.17 | 1.22 | 8.78 |  |
